These results are taken from publication PMC5983544, “Muscarinic M5 receptors modulate ethanol seeking in rats” (Neuropsychopharmacology, 2018).

The subject of data set [1] is ethanol-preferring (iP) rats. Briefly: Cue-induced reinstatement of ethanol seeking. Type of data set: in vivo, rat. The following applies: 3 × 30 mg/kg p.o. The procedure: A separate cohort of rats (n = 11) underwent 12 weeks of operant ethanol (10% v/v) self-administration followed by extinction training, where lever presses had no programmed consequences. Extinction occurred in the absence of CS+ and S+ cues. […] Subsequently, rats were tested for cue-induced reinstatement by re-introduction of the ethanol-paired CS+ and S+ cues, but in the absence of reward delivery. Rats were then re-extinguished and submitted to a second reinstatement session with the counterbalanced treatment.

A further data set has as its target T1, rat M3 mAChR (Rattus norvegicus, UniProt P08483).
T1 construct: host or cells: FlpIn CHO cells (Invitrogen)
Briefly: ACh-stimulated IP accumulation (IP-One) in CHO-rM3 cells. Type of data set: cell-based. The following applies: Fig. 2c. The procedure: (§1) The IP-One assay kit (Cisbio) was used for the direct quantitative measurement of inositol phosphate (IP) accumulation in CHO-rM1, CHO-rM3 or CHO-rM5 cells, as described previously. The CHO-hCB1 pERK1/2 assays were performed as described in ref [24].

Another data set addresses T2, rat M4 mAChR (Rattus norvegicus, UniProt P08485).
T2 construct: host or cells: FlpIn CHO cells (Invitrogen)
T2 sequence (P08485 1-478): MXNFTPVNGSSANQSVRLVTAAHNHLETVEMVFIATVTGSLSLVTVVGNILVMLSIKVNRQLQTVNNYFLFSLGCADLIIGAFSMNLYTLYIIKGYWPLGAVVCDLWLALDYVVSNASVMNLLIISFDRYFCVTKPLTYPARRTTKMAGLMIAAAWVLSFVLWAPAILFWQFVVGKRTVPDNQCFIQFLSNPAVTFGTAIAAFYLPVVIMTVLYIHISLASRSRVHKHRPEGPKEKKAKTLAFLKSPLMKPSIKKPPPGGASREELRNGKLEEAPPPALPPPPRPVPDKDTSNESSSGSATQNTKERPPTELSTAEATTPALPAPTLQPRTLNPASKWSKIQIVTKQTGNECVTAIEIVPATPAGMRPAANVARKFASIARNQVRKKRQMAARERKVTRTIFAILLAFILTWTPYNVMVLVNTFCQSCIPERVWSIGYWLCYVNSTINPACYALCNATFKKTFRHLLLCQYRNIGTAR
Briefly: ACh-stimulated [35S]GTPγS binding in CHO-rM4 cell membranes. Type of data set: biochemical. To be noted: rM4, [35S]GTPγS binding. The procedure: [^3H]NMS equilibrium binding assays in CHO-rM1 to CHO-rM5 cells were performed as previously described for CHO-hM5 cells. For [^35S]GTPγS binding, CHO-rM2 and CHO-rM4 cell membranes were prepared as described in Supplementary information. Membrane [^35S]GTPγS binding was performed as described in ref [26]., except GDP and [^35S]GTPγS concentrations were 1 μM and 0.3 nM, respectively. [^3H](+)-pentazocine binding was performed as described in ref. [27].

Data set [2] concerns ethanol-preferring (iP) rats. Briefly: Ethanol self-administration after bilateral microinjection into dorsolateral (DL) striatum. Type of data set: in vivo, rat. To be noted: intra-DL striatum, 105 pmol/hemisphere. An excerpt: (§2) Male iP rats (n = 14) were trained to self-administer 10% (v/v) ethanol via lever presses under FR3 operant conditions for approximately 12 weeks, in the presence of a 1-s light conditioned stimulus (CS+) occurring when the ethanol solution was delivered and an olfactory cue (S+ cue; one drop of vanilla essence, placed directly below the ethanol-paired (active) lever), as previously described, followed by surgery and testing. […] Rats were then given 7 days of ethanol self-administration before receiving the alternate treatment in a counterbalanced manner. For full details refer to Supplementary material.
Microinjections were performed as previously described; for full details see Supplementary material.

The test system of data set [3] is ethanol-preferring (iP) rats. Briefly: Operant ethanol self-administration, oral dosing. Type of data set: in vivo, rat.
Description: as §2

In a further data set the target is T3, rat M5 mAChR (Rattus norvegicus, UniProt P08911).
T3 sequence (P08911 1-531): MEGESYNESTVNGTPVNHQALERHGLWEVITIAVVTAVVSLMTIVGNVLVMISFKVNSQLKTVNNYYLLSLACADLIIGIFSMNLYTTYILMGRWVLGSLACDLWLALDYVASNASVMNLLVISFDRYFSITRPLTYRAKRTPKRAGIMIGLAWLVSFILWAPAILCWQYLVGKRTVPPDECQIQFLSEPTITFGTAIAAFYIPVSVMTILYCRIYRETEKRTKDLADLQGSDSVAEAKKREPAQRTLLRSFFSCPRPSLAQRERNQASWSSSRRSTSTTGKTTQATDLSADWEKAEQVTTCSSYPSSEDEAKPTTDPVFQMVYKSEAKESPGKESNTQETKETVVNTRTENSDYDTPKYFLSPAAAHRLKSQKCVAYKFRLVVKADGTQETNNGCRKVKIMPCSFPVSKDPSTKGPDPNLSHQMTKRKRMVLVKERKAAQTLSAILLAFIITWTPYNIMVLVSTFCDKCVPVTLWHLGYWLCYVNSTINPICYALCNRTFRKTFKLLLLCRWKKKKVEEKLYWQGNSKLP
Briefly: ACh-stimulated IP accumulation (IP-One) in CHO-rM5 cells. Type of data set: cell-based. The procedure:
as §1

Data set [4] addresses hM5 mAChR. To be noted: same assay; cited from earlier work.
Data set [5] relates to hM5 mAChR. To be noted: cited from earlier work.
For a further data set, the target named is T4, rat M1 mAChR (Rattus norvegicus, UniProt P08482).
T4 construct: host or cells: FlpIn CHO cells (Invitrogen)
T4 sequence (P08482 1-460): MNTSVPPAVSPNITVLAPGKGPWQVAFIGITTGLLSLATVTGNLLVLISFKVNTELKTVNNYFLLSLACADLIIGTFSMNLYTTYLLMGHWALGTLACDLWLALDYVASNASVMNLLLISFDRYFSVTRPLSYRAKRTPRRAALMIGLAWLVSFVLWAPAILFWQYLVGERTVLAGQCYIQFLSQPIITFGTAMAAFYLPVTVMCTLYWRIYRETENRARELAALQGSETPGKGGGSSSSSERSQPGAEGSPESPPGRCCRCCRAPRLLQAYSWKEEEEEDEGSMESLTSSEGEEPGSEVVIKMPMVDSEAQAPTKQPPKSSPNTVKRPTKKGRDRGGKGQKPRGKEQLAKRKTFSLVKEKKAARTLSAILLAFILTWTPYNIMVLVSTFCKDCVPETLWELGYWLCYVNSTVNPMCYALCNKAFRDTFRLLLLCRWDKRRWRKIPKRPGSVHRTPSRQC
Briefly: ACh-stimulated IP accumulation (IP-One) in CHO-rM1 cells. Type of data set: cell-based. As for the experimental part: as §1

T1 sequence (P08483 whole entry): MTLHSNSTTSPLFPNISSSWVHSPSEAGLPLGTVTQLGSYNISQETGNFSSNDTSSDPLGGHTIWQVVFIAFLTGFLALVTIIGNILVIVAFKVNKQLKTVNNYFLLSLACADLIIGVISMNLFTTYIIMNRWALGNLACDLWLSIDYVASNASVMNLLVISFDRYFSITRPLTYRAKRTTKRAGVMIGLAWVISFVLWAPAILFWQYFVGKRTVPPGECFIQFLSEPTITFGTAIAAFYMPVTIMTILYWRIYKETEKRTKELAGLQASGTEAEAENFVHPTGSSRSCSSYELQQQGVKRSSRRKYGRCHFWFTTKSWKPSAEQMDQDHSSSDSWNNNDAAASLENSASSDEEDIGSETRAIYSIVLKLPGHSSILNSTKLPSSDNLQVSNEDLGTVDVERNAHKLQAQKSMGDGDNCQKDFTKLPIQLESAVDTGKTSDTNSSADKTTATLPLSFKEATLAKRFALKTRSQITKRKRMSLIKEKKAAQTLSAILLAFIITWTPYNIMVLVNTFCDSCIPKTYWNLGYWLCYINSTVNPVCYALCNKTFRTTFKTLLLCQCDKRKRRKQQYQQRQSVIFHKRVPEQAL

Regarding `O=C(c1ccc(F)c(F)c1)N1CCN2C(=O)c3ccccc3[C@@]12c1ccc(Cl)cc1` [ML375, (S)-9b-(4-chlorophenyl)-1-(3,4-difluorobenzoyl)-2,3-dihydro-1H-imidazo[2,1-a]isoi ndol-5(9bH)-one], in [1] (P = 0.015), the “cue-induced reinstatement of ethanol seeking (active lever) vs vehicle” value was “significantly attenuated”. The “responding for the previously water-paired lever vs vehicle” value in [1] (P > 0.99) is on record as “no differences”. Moreover, at rat M3 mAChR, the “activity on ACh function at rM3” value was “weak activity”. Moreover, the “effect on ACh potency” value on rat M4 mAChR and at rat M1 mAChR was “no significant effects” throughout. For the same molecule, in data set [2] (P = 0.011), the “responding for ethanol vs vehicle” value is recorded as “significantly reduced responding for ethanol”. Also, the “responding for water vs vehicle” value in [2] (P > 0.99) is “no difference”; in [3] (30 mg/kg p.o. at 27 h, 11 h and 3 h prior to test, P = 0.98) it was “no difference”. In addition, in [3] (30 mg/kg p.o. at 3 h, 11 h and 27 h prior to testing, P = 0.037), the “latency to first water response vs vehicle” value is given as “extends the latency”. The “ethanol responding vs vehicle” value in data set [3] (30 mg/kg p.o. at 27 h, 11 h and 3 h prior to test, 10% ethanol, FR3, P = 0.0015) is listed as “significantly reduced ethanol responding”. For the same molecule, the “latency to first ethanol reward vs vehicle” value in data set [3] (30 mg/kg p.o., P = 0.73) is “no difference”. In addition, the “functional cooperativity between ML375 and ACh” value at rat M5 mAChR (rM5) is “high negative cooperativity”. At rat M5 mAChR (read-out: functional affinity pKB (converted)), the Kb was 0.155 µM. Besides, the “binding affinity pKB” value at hM5 mAChR [4] is reported as 6.87. Also, the “cooperativity with ACh binding, Log α” value in the data set with hM5 mAChR [4] is listed as −1.37. In the data set on hM5 mAChR [5], the “functional affinity pKB” value is given as 6.22.
